Reference: patent US9505781B2, “Compositions comprising thienopyrimidine and thienopyridine compounds and methods of use thereof” (The Regents of the University of Michigan, priority 2013, dated 2016)

Molecular target: T1, menin-MLL interaction (Homo sapiens, UniProt O00255)
T1 sequence (O00255 1-610): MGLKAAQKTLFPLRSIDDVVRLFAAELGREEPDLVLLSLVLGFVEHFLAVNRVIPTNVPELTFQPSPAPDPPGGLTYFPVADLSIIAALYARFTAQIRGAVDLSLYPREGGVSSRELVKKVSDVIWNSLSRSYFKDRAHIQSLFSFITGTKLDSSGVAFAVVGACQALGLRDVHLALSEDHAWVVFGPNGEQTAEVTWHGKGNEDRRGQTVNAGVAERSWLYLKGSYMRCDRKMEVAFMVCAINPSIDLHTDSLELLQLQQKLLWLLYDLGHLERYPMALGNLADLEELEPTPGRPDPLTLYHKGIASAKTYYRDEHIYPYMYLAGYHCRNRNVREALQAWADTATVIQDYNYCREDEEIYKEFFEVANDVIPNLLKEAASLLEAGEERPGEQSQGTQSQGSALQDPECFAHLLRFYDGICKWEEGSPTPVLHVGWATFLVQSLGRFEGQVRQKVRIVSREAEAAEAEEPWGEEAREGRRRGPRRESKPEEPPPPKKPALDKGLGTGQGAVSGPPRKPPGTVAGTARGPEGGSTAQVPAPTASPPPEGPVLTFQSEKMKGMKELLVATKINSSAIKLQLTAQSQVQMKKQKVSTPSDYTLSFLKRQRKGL
Assay: biochemical
Description: Compounds that inhibit the interaction decrease the fluorescence anisotropy which is being used as a read-out for compound screening and for IC50 determination.

`Oc1ccc(CN2CCC(Nc3ncnc4sc(CC(F)(F)F)cc34)CC2)cc1` [Compound 105, 4-((4-((6-(2,2,2-trifluoroethyl)thieno[2,3-d]pyrimidin-4-yl)amino)piperidin-1-yl)methyl)phenol] was tested, and the IC50 was less than 100 nM.
For `OCc1ccc(CN2CCC(CNc3ncnc4sc(CC(F)(F)F)cc34)CC2)cc1` [Compound 266], the IC50 was 500 to 2000 nM.
`FC(F)(F)CCc1nnc(N2CCN(c3ncnc4sc(CC(F)(F)F)cc34)CC2)s1` [Compound 18] was tested, and the IC50 was 500 to 2000 nM.
For `O=C(Cc1ccc(NS(=O)(=O)N2CCCCC2)cc1)N1CCN(c2ncnc3sc(CC(F)(F)F)cc23)CC1` [Compound 52], the IC50 was less than 100 nM.
Molecule `N#Cc1cc2cc(CN3CCC(Nc4ncnc5sc(CC(F)(F)F)cc45)CC3)ccc2n1Cc1nc[nH]n1` [Compound 204] has an IC50 of less than 100 nM.
`O=C(Cc1ccccc1Cl)N1CCN(c2ncnc3sc(CC(F)(F)F)cc23)CC1` [Compound 70] showed an IC50 of 100 to 500 nM.
`CCOc1cc2c(cc1CN1CCC(Nc3ncnc4sc(CC(F)(F)F)cc34)CC1)cc(C#N)n2C[C@H](O)CO` [Compound 217] showed an IC50 of less than 100 nM.
`FC(F)(F)Cc1cc2c(NC3CCN(Cc4ccc[nH]4)CC3)ncnc2s1` [Compound 131] showed an IC50 of 100 to 500 nM.
`CCCc1cc2c(N3CCN(C4CCCCCC4)CC3)ncnc2s1` [Compound 31] was tested, and the IC50 was 500 to 2000 nM.
With `N#Cc1cc2cc(CN3CCC(Nc4c(C#N)cnc5sc(CC(F)(F)F)cc45)CC3)ccc2[nH]1` [Compound 279] the IC50 was less than 100 nM.
In the case of `CCCc1cc2c(NC3CCN(Cc4ccccc4Cl)CC3)ncnc2s1` [Compound 154], the IC50 is reported as 500 to 2000 nM.
For `COc1cc2c(cc(C#N)n2Cc2c[nH]nn2)c(C)c1CN1CCC(Nc2ncnc3sc(CC(F)(F)F)cc23)CC1` [Compound 392], the IC50 was less than 100 nM.
Work on `FC(F)(F)Cc1cc2c(N3CCN(c4nnc(C(F)(F)F)o4)CC3)ncnc2s1` [Compound 20] yielded an IC50 of 500 to 2000 nM.
For `CS(=O)(=O)N(CC(F)(F)F)c1ccc(CC(=O)N2CCN(c3ncnc4sc(CC(F)(F)F)cc34)CC2)cc1` [Compound 85], the IC50 was 100 to 500 nM.
Molecule `CC1(C)CN=C(N2CCN(c3ncnc4sc(CCCC(F)(F)F)cc34)CC2)S1` [Compound 22] has an IC50 of 500 to 2000 nM.
For `COc1c(CN2CCC(Nc3ncnc4sc(CC(F)(F)F)cc34)CC2)ccc2[nH]c(C#N)cc12` [Compound 180, 4-methoxy-5-((4-((6-(2,2,2-trifluoroethyl)thieno[2,3-d]pyrimidin-4-yl)amino)piperidin-1-yl)methyl)-1H-indole-2-carbonitrile], the IC50 was less than 100 nM.
For `N#Cc1cc2c(CN)c(CN3CCC(Nc4ncnc5sc(CC(F)(F)F)cc45)CC3)ccc2[nH]1` [Compound 294], the IC50 was less than 100 nM.
`Cc1c(CN2CCC(Nc3ncnc4sc(CC(F)(F)F)cc34)CC2)ccc2c1cc(C#N)n2CCN1CCN(S(=O)(=O)N(C)C)CC1` [Compound 375] showed an IC50 of less than 100 nM.
`FC(F)(F)Cc1cc2c(N3CCN(c4nnc(CC(F)(F)F)s4)CC3)ncnc2s1` [Compound 8] showed an IC50 of 100 to 500 nM.
For `N#Cc1cc2cc(CN3CCC(Nc4ncnc5sc(CC(F)(F)F)cc45)CC3)ccc2n1CC(O)(CO)COCC1CCCCC1` (stereo not shown) [Compound 317], the IC50 was less than 100 nM.
Molecule `Cc1c(CN2CCC(Nc3ncnc4sc(CC(F)(F)F)cc34)CC2)ccc2c1cc(C#N)n2CCN1CCNC(=O)C1` [Compound 355] has an IC50 of less than 100 nM.
For `FC(F)(F)Cc1cc2c(N3CCN(C4CCCCC4)CC3)ncnc2s1` [Compound 11], the IC50 was 100 to 500 nM.
Work on `NN(c1ncnc2sc(CC(F)(F)F)cc12)C1CCN(Cc2ccccc2)CC1` [Compound 123] yielded an IC50 of 100 to 500 nM.
For `CCCc1cc2c(NC3CCN(Cc4ccccc4)CC3)ncnc2s1` [Compound 149], the IC50 was 500 to 2000 nM.
For `OCc1ccc(CN2CCC(Nc3ncnc4sc(CC(F)(F)F)cc34)CC2)cc1` [Compound 140], the IC50 was 500 to 2000 nM.
`FC(F)(F)Cc1cc2c(NCC3CCN(Cc4ccccc4)CC3)ncnc2s1` [Compound 277] showed an IC50 of 500 to 2000 nM.
Molecule `N#C[C@@H]1C[C@@H]1c1ccc(CN2CCC(Nc3ncnc4sc(CC(F)(F)F)cc34)CC2)cc1` [Compound 159] has an IC50 of 500 to 2000 nM.
`N#CCn1c(C#N)cc2cc(CN3CCC(Nc4ncnc5sc(CC(F)(F)F)cc45)CC3)ccc21` [Compound 197] gave an IC50 of less than 100 nM.
`N#Cc1cc2c(Cl)c(CN3CCC(Nc4ncnc5sc(CC(F)(F)F)cc45)CC3)ccc2n1C[C@H](O)CO` [Compound 226] gave an IC50 of less than 100 nM.
For `Cc1ncc(Cn2c(C#N)cc3c(C)c(CN4CCC(Nc5ncnc6sc(CC(F)(F)F)cc56)CC4)ccc32)[nH]1` [Compound 351], the IC50 was less than 100 nM.
`COCCOC(CO)Cn1c(C#N)cc2cc(CN3CCC(Nc4ncnc5sc(CC(F)(F)F)cc45)CC3)ccc21` (stereo not shown) [Compound 316] showed an IC50 of less than 100 nM.
With `N#Cc1cc2ccc(CN3CCC(Nc4ncnc5sc(CC(F)(F)F)cc45)CC3)cc2[nH]1` [Compound 229] the IC50 was 100 to 500 nM.
Molecule `N#Cc1cc2cc(CN3CCC(Nc4ncnc5sc(CC(F)(F)F)cc45)CC3)ccc2n1Cc1cc(OCCCC2CCCC2)n[nH]1` [Compound 416] has an IC50 of 100 to 500 nM.
`CCC(=O)N1CCN(CCn2c(C#N)cc3cc(CN4CCC(Nc5ncnc6sc(CC(F)(F)F)cc56)CC4)ccc32)CC1` [Compound 394] gave an IC50 of less than 100 nM.
`N#Cc1cc2cc(CN3CCC(Nc4ncnc5sc(CC(F)(F)F)cc45)CC3)ccc2n1Cc1cc(OCC2CC2)n[nH]1` [Compound 312] showed an IC50 of less than 100 nM.
Work on `Cc1c(CN2CCC(Nc3ncnc4sc(CC(F)(F)F)cc34)CC2)ccc2c1cc(C#N)n2Cc1cn[nH]c1` [Compound 309, 1-((1H-pyrazol-4-yl)methyl)-4-methyl-5-((4-((6-(2,2,2-trifluoroethyl)thieno[2,3-d]pyrimidin-4-yl)amino)piperidin-1-yl)methyl)-1H-indole-2-carbonitrile] yielded an IC50 of less than 100 nM.
With `CNC(=O)Cn1c(C#N)cc2cc(CN3CCC(Nc4ncnc5sc(CC(F)(F)F)cc45)CC3)ccc21` [Compound 212] the IC50 was less than 100 nM.
`O=C(Cc1ccc(Cc2ccoc2)cc1)N1CCN(c2ncnc3sc(CC(F)(F)F)cc23)CC1` [Compound 76] showed an IC50 of 100 to 500 nM.
Molecule `FC(F)(F)Cc1cc2c(N3CCN(c4nnc(CCCc5ccccc5)s4)CC3)ncnc2s1` [Compound 41] has an IC50 of 500 to 2000 nM.
In the case of `CS(=O)(=O)Cc1ccc(CC(=O)N2CCN(c3ncnc4sc(CC(F)(F)F)cc34)CC2)cc1` [Compound 43], the IC50 is reported as less than 100 nM.
Work on `N#Cc1ccc(CN2CCC(Nc3ncnc4sc(CC(F)(F)F)cc34)CC2)cc1` [Compound 144] yielded an IC50 of 500 to 2000 nM.
Molecule `Oc1ccccc1CN1CCC(Nc2ncnc3sc(CC(F)(F)F)cc23)CC1` [Compound 114] has an IC50 of 100 to 500 nM.
In the case of `CCC(=O)N1CCN(CCCn2c(C#N)cc3cc(CN4CCC(Nc5ncnc6sc(CC(F)(F)F)cc56)CC4)ccc32)CC1` [Compound 396], the IC50 is reported as less than 100 nM.
With `CC(=O)NCCn1c(C#N)cc2cc(CN3CCC(Nc4ncnc5sc(CC(F)(F)F)cc45)CC3)ccc21` [Compound 208] the IC50 was less than 100 nM.
Molecule `Cc1c(CN2CCC(Nc3ncnc4sc(CC(F)(F)F)cc34)CC2)ccc2c1cc(C#N)n2CCO` [Compound 299] has an IC50 of less than 100 nM.
In the case of `N#Cc1cc2c(C3CC3)c(CN3CCC(Nc4ncnc5sc(CC(F)(F)F)cc45)CC3)ccc2[nH]1` [Compound 293], the IC50 is reported as less than 100 nM.
`Cc1c(CN2CCC(Nc3ncnc4sc(CC(F)(F)F)cc34)CC2)ccc2c1cc(C#N)n2Cc1c[nH]nn1` [Compound 311] was tested, and the IC50 was less than 100 nM.
With `FC(F)(F)Cc1cc2c(N3CCN(c4nnc(CCCC5CCCCC5)s4)CC3)ncnc2s1` [Compound 17] the IC50 was 500 to 2000 nM.
Work on `Cc1c(CN2CCC(Nc3ncnc4sc(CC(F)(F)F)cc34)CC2)ccc2c1cc(C#N)n2Cc1ncc[nH]1` [Compound 332] yielded an IC50 of less than 100 nM.
For `N#Cc1cc2c(Cl)c(CN3CCC(Nc4ncnc5sc(CC(F)(F)F)cc45)CC3)ccc2[nH]1` [Compound 224], the IC50 was less than 100 nM.
In the case of `FC(F)(F)Cc1cc2c(N[C@H]3CCN(Cc4ccccc4)C[C@@H]3NCCc3ccccc3)ncnc2s1` [Compound 168], the IC50 is reported as 100 to 500 nM.
With `CC(C)c1cc2c(N3CCN(C4=NCC(C)(C)S4)CC3)ncnc2s1` [Compound 30] the IC50 was 500 to 2000 nM.
`FC(c1cc2c(N3CCN(c4nnc(C(F)(F)F)s4)CC3)ncnc2s1)C(F)(F)F` (stereo not shown) [Compound 21] gave an IC50 of 500 to 2000 nM.
Molecule `CCOc1c(CN2CCC(Nc3ncnc4sc(CC(F)(F)F)cc34)CC2)ccc2[nH]c(C#N)cc12` [Compound 244] has an IC50 of 100 to 500 nM.
In the case of `N#Cc1c[nH]c2cc(CN3CCC(Nc4ncnc5sc(CC(F)(F)F)cc45)CC3)ccc12` [Compound 228], the IC50 is reported as 100 to 500 nM.
With `Cc1c(CN2CCC(Nc3ncnc4sc(CC(F)(F)F)cc34)CC2)ccc2c1cc(C#N)n2CCN1CCCCC1` [Compound 329] the IC50 was less than 100 nM.
In the case of `OCCC(F)(F)Cc1cc2c(NC3CCN(Cc4ccccc4)CC3)ncnc2s1` [Compound 138], the IC50 is reported as 500 to 2000 nM.
`Cc1ccccc1CN1CCC(CNc2ncnc3sc(CC(F)(F)F)cc23)CC1` [Compound 258] showed an IC50 of 100 to 500 nM.
`FC(F)(F)Cc1cc2c(NC3CCN(Cc4ccsc4)CC3)ncnc2s1` [Compound 133] was tested, and the IC50 was 100 to 500 nM.
`CS(=O)(=O)N1CCC[C@H]1CN[C@H]1CN(Cc2ccccc2)CC[C@@H]1Nc1ncnc2sc(CC(F)(F)F)cc12` [Compound 172] gave an IC50 of 100 to 500 nM.
With `O=c1[nH]c2ccc(CN3CCC(Nc4ncnc5sc(CC(F)(F)F)cc45)CC3)cc2[nH]1` [Compound 250] the IC50 was 500 to 2000 nM.
With `Cc1ccc2[nH]c(C#N)cc2c1CN1CCC(Nc2ncnc3sc(CC(F)(F)F)cc23)CC1` [Compound 218] the IC50 was less than 100 nM.
`Cc1cn[nH]c1Cn1c(C#N)cc2c(C)c(CN3CCC(Nc4ncnc5sc(CC(F)(F)F)cc45)CC3)ccc21` [Compound 330] gave an IC50 of less than 100 nM.
Molecule `CCN(c1ccc(CC(=O)N2CCN(C3=NC=NC4SC(CC(F)(F)F)=CC34)CC2)c(Cl)c1)S(C)(=O)=O` (stereo not shown) [Compound 66] has an IC50 of less than 100 nM.
